{"source": "ChEMBL document CHEMBL4373731", "about": "“Antiprotozoal alkaloid principles of the plant family Amaryllidaceae” (Bioorg Med Chem Lett, 2019)", "key": {"Trypanosoma cruzi": {"test_system": "Trypanosoma cruzi", "experiment": "Antitrypanosomal activity against Trypanosoma cruzi", "type": "functional, organism-based"}, "Leishmania donovani": {"test_system": "Leishmania donovani", "experiment": "[…] activity against Leishmania donovani", "type": "functional, organism-based"}, "Trichomonas vaginalis [1]": {"test_system": "Trichomonas vaginalis", "experiment": "Antiprotozoal activity against Trichomonas vaginalis assessed as reduction in […] at 250 ug/ml at relative to control", "type": "functional"}, "[2]": {"test_system": "Trypanosoma brucei rhodesiense", "experiment": "Antitrypanosomal activity against Trypanosoma brucei rhodesiense", "type": "functional, organism-based"}, "[3]": {"experiment": "Selectivity index, ratio of IC50 for Trypanosoma brucei rhodesiense to IC50 for human KB cells", "type": "toxicity", "settings": "read-out: Ratio IC50"}, "L6": {"test_system": "L6", "experiment": "Cytotoxicity against rat L6 cells assessed as reduction in cell viability", "type": "cell-based"}, "KB": {"test_system": "KB", "experiment": "Cytotoxicity against human KB cells assessed as reduction in cell viability", "type": "cell-based"}, "Trichomonas vaginalis [4]": {"test_system": "Trichomonas vaginalis", "experiment": "Antitrichomonal activity against Trichomonas vaginalis assessed as reduction in parasite viability at 125 ug/ml relative to control", "type": "functional"}}, "data": [{"smiles": "COc1ccc2c3c1O[C@H]1C[C@H](O)C=C[C@@]31CCN(C)C2", "values": [{"measurement": "IC50", "setting": "Trypanosoma cruzi", "result": "> 30", "unit": "µg/mL"}, {"measurement": "IC50", "setting": "Leishmania donovani", "result": "> 30", "unit": "µg/mL"}]}, {"smiles": "O=C(O[C@H]1[C@H]2c3cc4c(cc3CN3CCC(=C[C@@H]1OC(=O)c1ccccc1)[C@H]23)OCO4)c1ccccc1", "values": [{"measurement": "Activity", "setting": "Trichomonas vaginalis [1]", "result": 84, "unit": "%"}]}, {"smiles": "O=C(O[C@H]1C=C2CCN3Cc4cc5c(cc4[C@H]([C@@H]1O)[C@@H]23)OCO5)c1ccccc1", "values": [{"measurement": "Activity", "setting": "Trichomonas vaginalis [1]", "result": 35, "unit": "%"}]}, {"smiles": "O=c1c2cc3c(cc2c2cccc4ccn1c42)OCO3", "values": [{"measurement": "IC50", "setting": "[2]", "result": 8.4, "unit": "µg/mL"}, {"measurement": "IC50", "setting": "Trypanosoma cruzi", "result": 90, "unit": "µg/mL"}]}, {"smiles": "COc1cc2c(cc1OC)[C@@]13C=CC(=O)C[C@@H]1[N@](CC3)C2", "values": [{"measurement": "IC50", "setting": "[2]", "result": 2.8, "unit": "µg/mL"}]}, {"smiles": "O[C@H]1C=C2[C@H]3CN(Cc4cc5c(cc43)OCO5)[C@H]2C[C@@H]1O", "values": [{"measurement": "IC50", "setting": "[2]", "result": 0.7, "unit": "µg/mL"}, {"measurement": "IC50", "setting": "Trypanosoma cruzi", "result": 7.1, "unit": "µg/mL"}, {"measurement": "IC50", "setting": "Leishmania donovani", "result": "> 30", "unit": "µg/mL"}]}, {"smiles": "CCCCCCCCCCCC(=O)O[C@H]1C=C2CCN3Cc4cc5c(cc4[C@H]([C@@H]1O)[C@@H]23)OCO5", "values": [{"measurement": "Activity", "setting": "Trichomonas vaginalis [1]", "result": 97, "unit": "%"}]}, {"smiles": "COc1cc2c[n+]3c4c(cc([O-])cc4c2cc1O)CC3", "values": [{"measurement": "IC50", "setting": "[2]", "result": "> 30", "unit": "µg/mL"}, {"measurement": "IC50", "setting": "Trypanosoma cruzi", "result": "> 30", "unit": "µg/mL"}, {"measurement": "IC50", "setting": "Leishmania donovani", "result": "> 30", "unit": "µg/mL"}]}, {"smiles": "COc1cc2c(cc1O)C[N@@]1C[C@H](O)[C@@]23C=C[C@@H](OC)C[C@H]13", "values": [{"measurement": "IC50", "setting": "[2]", "result": 10.2, "unit": "µg/mL"}, {"measurement": "IC50", "setting": "Trypanosoma cruzi", "result": 88.4, "unit": "µg/mL"}, {"measurement": "IC50", "setting": "Leishmania donovani", "result": "> 90", "unit": "µg/mL"}]}, {"smiles": "CN1CC[C@]23c4cc5c(cc4[C@@H]4C[C@H]2[C@H](CC[C@H]13)O4)OCO5", "values": [{"measurement": "IC50", "setting": "[2]", "result": 19.2, "unit": "µg/mL"}, {"measurement": "IC50", "setting": "Trypanosoma cruzi", "result": 54, "unit": "µg/mL"}, {"measurement": "IC50", "setting": "Leishmania donovani", "result": "> 100", "unit": "µg/mL"}]}, {"smiles": "COc1cc2c(cc1OC)[C@@H]1[C@H](OC(C)=O)[C@@H](O)C[C@H]3CC[N+]([O-])(C2)[C@H]31", "note": "(stereo partly specified)", "values": [{"measurement": "IC50", "setting": "[2]", "result": 73.4, "unit": "µg/mL"}, {"measurement": "IC50", "setting": "Trypanosoma cruzi", "result": "> 90", "unit": "µg/mL"}, {"measurement": "selectivity ratio", "setting": "[3]", "result": "> 16"}, {"measurement": "IC50", "setting": "Leishmania donovani", "result": "> 90", "unit": "µg/mL"}, {"measurement": "IC50", "setting": "L6", "result": "> 90", "unit": "µg/mL"}, {"measurement": "IC50", "setting": "KB", "result": "> 50", "unit": "µg/mL"}]}, {"smiles": "O=c1[nH]c2c(O)cccc2c2cc3c(cc12)OCO3", "values": [{"measurement": "IC50", "setting": "[2]", "result": 5.99, "unit": "µg/mL"}, {"measurement": "IC50", "setting": "Trypanosoma cruzi", "result": 52.7, "unit": "µg/mL"}, {"measurement": "IC50", "setting": "Leishmania donovani", "result": "> 90", "unit": "µg/mL"}]}, {"smiles": "O[C@H]1[C@H]2C(=CC[C@@H]1O)[C@H]1C[N@]2Cc2cc3c(cc21)OCO3", "values": [{"measurement": "IC50", "setting": "[2]", "result": 9.6, "unit": "µg/mL"}, {"measurement": "IC50", "setting": "Trypanosoma cruzi", "result": 54.6, "unit": "µg/mL"}, {"measurement": "IC50", "setting": "Leishmania donovani", "result": "> 30", "unit": "µg/mL"}]}, {"smiles": "[O-][N@@+]12Cc3cc4c(cc3[C@]3(C=C[C@@H](O)C[C@@H]31)[C@@H](O)C2)OCO4", "values": [{"measurement": "IC50", "setting": "[2]", "result": "> 90", "unit": "µg/mL"}, {"measurement": "IC50", "setting": "Trypanosoma cruzi", "result": "> 90", "unit": "µg/mL"}, {"measurement": "IC50", "setting": "Leishmania donovani", "result": "> 90", "unit": "µg/mL"}]}, {"smiles": "O[C@H]1CC[C@H]2[N@@]3CC[C@@]2(c2cc4c(cc2C3)OCO4)[C@H]1O", "values": [{"measurement": "IC50", "setting": "[2]", "result": 11.1, "unit": "µg/mL"}]}, {"smiles": "CC(=O)O[C@H]1C=C[C@@]23c4cc5c(cc4C[N@@](C[C@@H]2O)[C@H]3C1)OCO5", "values": [{"measurement": "IC50", "setting": "[2]", "result": 1.51, "unit": "µg/mL"}, {"measurement": "IC50", "setting": "Trypanosoma cruzi", "result": 8.3, "unit": "µg/mL"}, {"measurement": "IC50", "setting": "Leishmania donovani", "result": 17.9, "unit": "µg/mL"}]}, {"smiles": "COc1ccc(CNCCc2ccc(O)cc2)cc1O", "values": [{"measurement": "IC50", "setting": "[2]", "result": 28.6, "unit": "µg/mL"}, {"measurement": "IC50", "setting": "Trypanosoma cruzi", "result": 58.7, "unit": "µg/mL"}, {"measurement": "IC50", "setting": "Leishmania donovani", "result": 52.9, "unit": "µg/mL"}]}, {"smiles": "O=C(O[C@H]1[C@H]2c3cc4c(cc3CN3CCC(=C[C@@H]1O)[C@H]23)OCO4)c1ccc([N+](=O)[O-])cc1", "values": [{"measurement": "Activity", "setting": "Trichomonas vaginalis [1]", "result": 58, "unit": "%"}]}, {"smiles": "CN1CCc2cc3c(cc2C(=O)Cc2ccc4c(c2C1)OCO4)OCO3", "values": [{"measurement": "IC50", "setting": "[2]", "result": 8.71, "unit": "µg/mL"}, {"measurement": "IC50", "setting": "Trypanosoma cruzi", "result": 46.3, "unit": "µg/mL"}, {"measurement": "IC50", "setting": "Leishmania donovani", "result": "> 90", "unit": "µg/mL"}]}, {"smiles": "c1c2c(cc3c1[C@@H]1C[C@H]4[C@H](CC[C@@H]5NCC[C@@]354)O1)OCO2", "values": [{"measurement": "IC50", "setting": "[2]", "result": 18.7, "unit": "µg/mL"}]}, {"smiles": "O=C(O[C@H]1C=C2CCN3Cc4cc5c(cc4[C@H]([C@@H]1O)[C@@H]23)OCO5)c1ccc([N+](=O)[O-])cc1", "values": [{"measurement": "Activity", "setting": "Trichomonas vaginalis [1]", "result": 79, "unit": "%"}]}, {"smiles": "COc1cc2c(cc1OC)[C@@H]1[C@H](O)[C@@H](OC)[C@H](O)C3=CCN(C2)[C@H]31", "values": [{"measurement": "IC50", "setting": "[2]", "result": 3.1, "unit": "µg/mL"}]}, {"smiles": "COc1c2c(cc3c1OCO3)[C@]13CC[N@](C2)[C@H]1CC=C[C@@H]3O", "values": [{"measurement": "IC50", "setting": "[2]", "result": 28.8, "unit": "µg/mL"}, {"measurement": "IC50", "setting": "Trypanosoma cruzi", "result": "> 30", "unit": "µg/mL"}, {"measurement": "IC50", "setting": "Leishmania donovani", "result": "> 30", "unit": "µg/mL"}]}, {"smiles": "O[C@@H]1CC[C@H]2N3CC[C@@]2(c2cc4c(cc2C3)OCO4)[C@@H]1O", "values": [{"measurement": "IC50", "setting": "[2]", "result": 31.9, "unit": "µg/mL"}]}, {"smiles": "CC(=O)O[C@H]1C=C[C@@]23CCN(C)Cc4ccc(O)c(c42)O[C@H]3C1", "values": [{"measurement": "IC50", "setting": "[2]", "result": 1.1, "unit": "µg/mL"}, {"measurement": "IC50", "setting": "Trypanosoma cruzi", "result": 2.3, "unit": "µg/mL"}]}, {"smiles": "CN1CCC2=C[C@H](O)[C@H]3OC(=O)c4cc5c(cc4[C@H]3[C@@H]21)OCO5", "values": [{"measurement": "Activity", "setting": "Trichomonas vaginalis [4]", "result": 13, "unit": "%"}]}, {"smiles": "COc1c2c(cc3c1OCO3)[C@@]13CC[N@@](C2)[C@@H]1C[C@@H](OC)[C@@H]1O[C@@H]13", "values": [{"measurement": "IC50", "setting": "[2]", "result": 15, "unit": "µg/mL"}, {"measurement": "IC50", "setting": "Trypanosoma cruzi", "result": 56, "unit": "µg/mL"}, {"measurement": "IC50", "setting": "Leishmania donovani", "result": "> 100", "unit": "µg/mL"}]}, {"smiles": "COc1cc(C=O)c(-c2cccc3c2N(C)CC3)cc1OC", "values": [{"measurement": "Activity", "setting": "Trichomonas vaginalis [1]", "result": 28, "unit": "%"}, {"measurement": "Activity", "setting": "Trichomonas vaginalis [4]", "result": 28, "unit": "%"}]}]}
